The source of these data is ChEMBL document CHEMBL1268888, “Antiviral activity of 2,3'-anhydro and related pyrimidine nucleosides against hepatitis B virus” (Bioorg Med Chem Lett, 2010).

The structures appear in SMILES notation. In brackets after ≈: the same amount, converted by molar mass.

In data set [1] the test system is Hepatitis B virus. Briefly: Antiviral activity against HBV infected in human 2.2.15 cell at 10 ug/ml. It is filed as functional, organism-based. To be noted: HepG2 2.2.15.
For data set [2], the system named is Hepatitis B virus. The data set can be described thus: Antiviral activity against HBV infected in human 2.2.15 cell. It is filed as functional, organism-based. Conditions: HepG2 2.2.15.
Data set [3] can be described thus: Cytotoxicity against human HuH7 cells. The data set is classed as cell-based, Huh-7.
In data set [4] the test system is Hepatitis B virus. The data set can be described thus: Antiviral activity against HBV infected in duck primary hepatocytes at 10 ug/ml. It is filed as functional. Conditions: Hepatocyte.
Data set [5] has as its system Hepatitis B virus. Briefly: Antiviral activity against HBV infected in duck primary hepatocytes. It is filed as functional, organism-based. Conditions: Hepatocyte.
The nature of data set [6]: Stability of the compound in PBS buffer at physiological pH and 37 degC upto 48 hrs. It is filed as physicochemical.
A short description of data set [7]: Stability of the compound in fetal bovine serum at 37 degC after 24 hrs. It is filed as ADME. To be noted: cattle.

`CCc1cn([C@@H]2O[C@H](CO)[C@@H](O)[C@@H]2F)c(=O)[nH]c1=O` registered an inhibition at 10 µg/mL in the data set on Hepatitis B virus [1] of 90%. This compound also had an EC50 in the data set with Hepatitis B virus [2] of less than 10 µg/mL. Further, the CC50 in data set [3] was more than 200 µg/mL.
With `O=c1ccn2c(n1)O[C@H]1C[C@H]2O[C@@H]1CO`, the inhibition at 10 µg/mL in the data set on Hepatitis B virus [4] came to 67%; in the data set on Hepatitis B virus [1], 65%. Besides, the EC50 is 2.5 µg/mL (≈ 11.9 µM) in the data set with Hepatitis B virus [5] and 5 µg/mL (≈ 23.8 µM) with Hepatitis B virus [2]. Besides, the CC50 in data set [3] is more than 200 µg/mL. Further, the Stability entry in data set [6] and in data set [7] was “Stable” in each case.
On to `O=c1nc2n(cc1F)[C@H]1C[C@H](O2)[C@@H](CO)O1`, for which the values for the inhibition at 10 µg/mL in the data set on Hepatitis B virus [4] and in the data set with Hepatitis B virus [1] were 30% and 0%, respectively. This compound returned a CC50 in data set [3] of more than 200 µg/mL. Further, the Stability entry in data set [6] and in data set [7] was “Stable” throughout.
Take `Cc1cn2c(nc1=O)O[C@H]1C[C@H]2O[C@@H]1CO`: the inhibition at 10 µg/mL in the data set with Hepatitis B virus [4] was 56%; in the data set on Hepatitis B virus [1], 54%. The 50% effective concentration (EC50) with Hepatitis B virus [5] and with Hepatitis B virus [2] was 10 µg/mL (≈ 44.6 µM) in each case. In addition, the CC50 in data set [3] was more than 200 µg/mL. The Stability result in data set [6] and in data set [7] was “Stable” throughout.
For `O=c1nc2n(cc1C(F)(F)F)[C@H]1C[C@H](O2)[C@@H](CO)O1`, the results for the inhibition at 10 µg/mL with Hepatitis B virus [4] and with Hepatitis B virus [1] were 35% and 25%, respectively. The EC50 in the data set with Hepatitis B virus [5] was more than 10 µg/mL. In data set [3], this compound returned a CC50 of more than 200 µg/mL. Further, the Stability entry in data set [6] and in data set [7] was “Stable” throughout.
Consider `CCc1cn2c(nc1=O)O[C@H]1C[C@H]2O[C@@H]1CO`, for which the inhibition at 10 µg/mL in the data set with Hepatitis B virus [4] came out at 32%; in the data set on Hepatitis B virus [1], 51%. In addition, in the data set with Hepatitis B virus [2], the EC50 was 10 µg/mL (≈ 42 µM). Moreover, in data set [3], the CC50 was more than 200 µg/mL. In addition, the Stability entry in data set [6] and in data set [7] was “Stable” in each case.
Regarding `CCc1cn2c(nc1=O)O[C@H]1[C@H](F)[C@H]2O[C@@H]1CO`, the inhibition at 10 µg/mL with Hepatitis B virus [4] was determined as 65%; with Hepatitis B virus [1] it was 53%. Moreover, the EC50 is 2.5 µg/mL (≈ 9.76 µM) in the data set on Hepatitis B virus [5] and 10 µg/mL (≈ 39 µM) in the data set on Hepatitis B virus [2]. In data set [3], the CC50 is more than 200 µg/mL. In addition, the Stability result in data set [6] and in data set [7] was “Stable” throughout.
As for `Cc1cn([C@H]2C[C@@H](OS(C)(=O)=O)[C@@H](CO)O2)c(=O)[nH]c1=S`, the inhibition at 10 µg/mL with Hepatitis B virus [4] came out at 70%; with Hepatitis B virus [1] it was 45%. Also, the EC50 with Hepatitis B virus [5] was 2.5 µg/mL (≈ 7.43 µM); in the data set on Hepatitis B virus [2], more than 10 µg/mL. The compound also had a CC50 in data set [3] of more than 200 µg/mL.
`Cc1cn([C@H]2C[C@@H](O)[C@@H](CO)O2)c(=O)[nH]c1=O`: the CC50 in data set [3] was more than 200 µg/mL.
Turning to `O=c1ccn([C@H]2C[C@H](O)[C@@H](CO)O2)c(=O)[nH]1` [DEOXYURIDINE], in the data set on Hepatitis B virus [1], 10 µg/mL produced 0% inhibition. Further, the CC50 in data set [3] is more than 200 µg/mL.
Taken in the same sequence, the figures for `Cc1cn([C@H]2C[C@H](O)[C@@H](CO)O2)c(=O)[nH]c1=O` [DOXRIBTIMINE] were 0% and more than 200 µg/mL.
As for `CCc1cn([C@H]2C[C@H](O)[C@@H](CO)O2)c(=O)[nH]c1=O` [EDOXUDINE], the inhibition at 10 µg/mL with Hepatitis B virus [1] worked out at 40%. Also, in the data set with Hepatitis B virus [2], the EC50 is more than 10 µg/mL. The same compound came in with a CC50 in data set [3] of more than 200 µg/mL.
Regarding `Nc1ccn([C@@H]2CS[C@H](CO)O2)c(=O)n1` [LAMIVUDINE], the inhibition at 10 µg/mL with Hepatitis B virus [4] worked out at 96%; in the data set on Hepatitis B virus [1], 88%. The EC50 in the data set on Hepatitis B virus [5] worked out at 0.05 µg/mL (≈ 0.218 µM); in the data set with Hepatitis B virus [2], 0.2 µg/mL (≈ 0.872 µM). In addition, in data set [3], the CC50 was more than 200 µg/mL.
For the compound `O=c1[nH]c(=O)n([C@H]2C[C@H](O)[C@@H](CO)O2)cc1C(F)(F)F` [TRIFLURIDINE], 10 µg/mL produced 0% inhibition in the data set on Hepatitis B virus [1]. The compound also showed a CC50 in data set [3] of more than 200 µg/mL.
